Assay results reported in ChEMBL document CHEMBL1914419, “Discovery of aryloxy tetramethylcyclobutanes as novel androgen receptor antagonists” (J Med Chem, 2011).

assay: Intrinsic clearance in human liver microsomes; type: ADME, Microsome

microsomal CLint | Structure (SMILES)
40 µL/min/mg | Cc1cc(C(=O)N[C@H]2C(C)(C)[C@H](Oc3ccc(C#N)c(Cl)c3)C2(C)C)nn1C
< 7 µL/min/mg | CC(=O)N[C@H]1C(C)(C)[C@H](Oc2ccc(C#N)c(C#N)c2)C1(C)C
< 7 µL/min/mg | CC(=O)N[C@H]1C(C)(C)[C@H](Oc2ccc(C#N)c(C)c2)C1(C)C
17.5 µL/min/mg | CC(=O)N[C@H]1C(C)(C)[C@H](Oc2ccc(C#N)cc2Cl)C1(C)C
9.8 µL/min/mg | CC1(C)[C@H](NC(=O)c2cnccn2)C(C)(C)[C@H]1Oc1ccc(C#N)c(Cl)c1
< 8 µL/min/mg | CC1(C)[C@H](NC(=O)c2cn[nH]c2)C(C)(C)[C@H]1Oc1ccc(C#N)c(Cl)c1
9 µL/min/mg | Cn1cc(C(=O)N[C@H]2C(C)(C)[C@H](Oc3ccc(C#N)c(Cl)c3)C2(C)C)cn1
29 µL/min/mg | Cc1nnc(C(=O)N[C@H]2C(C)(C)[C@H](Oc3ccc(C#N)c(Cl)c3)C2(C)C)o1
< 10 µL/min/mg | CC1(C)[C@H](NC(=O)c2cnc3ncccn23)C(C)(C)[C@H]1Oc1ccc(C#N)c(Cl)c1
19 µL/min/mg | Cc1nc2ncccn2c1C(=O)N[C@H]1C(C)(C)[C@H](Oc2ccc(C#N)c(Cl)c2)C1(C)C
57 µL/min/mg | COCCn1ccc(C(=O)N[C@H]2C(C)(C)[C@H](Oc3ccc(C#N)c(Cl)c3)C2(C)C)n1
< 12 µL/min/mg | CC1(C)[C@H](NC(=O)c2ccn(CCO)n2)C(C)(C)[C@H]1Oc1ccc(C#N)c(Cl)c1
25 µL/min/mg | CC1(C)[C@H](NC(=O)c2ccn(CCC#N)n2)C(C)(C)[C@H]1Oc1ccc(C#N)c(Cl)c1
15 µL/min/mg | CN(C)C(=O)Cn1ccc(C(=O)N[C@H]2C(C)(C)[C@H](Oc3ccc(C#N)c(Cl)c3)C2(C)C)n1
< 8 µL/min/mg | Cc1nc(O[C@H]2C(C)(C)[C@H](NC(=O)c3cnc4ncccn34)C2(C)C)ccc1C#N

Structure (SMILES) | microsomal CLint
CC(=O)N[C@H]1C(C)(C)[C@H](Oc2ccc(C#N)c(Cl)c2)C1(C)C | < 8 µL/min/mg
CC(=O)N[C@H]1C(C)(C)[C@H](Oc2ccc(C#N)c(C(F)(F)F)c2)C1(C)C | 11 µL/min/mg
CC1(C)[C@H](NC(=O)c2cnn(CCO)c2)C(C)(C)[C@H]1Oc1ccc(C#N)c(Cl)c1 | 11 µL/min/mg
